From patent publication US6756342B1, “Substituted thienocycloalk(en) ylamino -1,3,5-triazine” (priority 1999, dated 2004)
Where a name gives a salt, the structure may show the parent alone.

Experiments:
weeds [1] = experiment: Post-emergence test, overall statement; format: in vivo
Procedure: (§1) Solvent: 5 parts by weight of acetone
(§2) Emulsifier: 1 part by weight of alkylaryl polyglycol ether
(§3) To produce a suitable preparation of active compound, 1 part by weight of active compound is mixed with the stated amount of solvent, the stated amount of emulsifier is added and the concentrate is diluted with water to the desired concentration.
(§4) Test plants which have a height of 5-15 cm are sprayed with the preparation of active compound such that the particular amounts of active compound desired are applied per unit area. The concentration of the spray liquor is chosen so that the particular amounts of active compound desired are applied in 1000 l of water/ha.
(§5) After three weeks, the degree of damage to the plants is rated in % damage in comparison to the development of the untreated control.
(§6) 0%=no effect (like untreated control)

weeds [2] = experiment: Pre-emergence test, overall statement; format: in vivo
Procedure: as §1, §2, §3
(§7) Seeds of the test plants are sown in normal soil. After about 24 hours, the soil is sprayed with the preparation of active compound such that the particular amount of active compound desired is applied per unit area. The concentration of the spray liquor is chosen so that the particular amount of active compound desired is applied in 1000 litre of water per hectare.
as §5, §6

Sinapis = experiment: Post-emergence test/greenhouse; format: in vivo; settings: 500 g of ai./ha, rated after three weeks vs untreated control
Procedure: as §1, §2, §3, §4, §5, §6

Xanthium = experiment: Post-emergence test/greenhouse; format: in vivo; settings: 500 g of ai./ha, rated after three weeks vs untreated control
Procedure: as §1, §2, §3, §4, §5, §6

Amaranthus [3] = experiment: Post-emergence test/greenhouse; format: in vivo; settings: 500 g of ai./ha, rated after three weeks vs untreated control
Procedure: as §1, §2, §3, §4, §5, §6

Alopecurus [4] = experiment: Post-emergence test/greenhouse; format: in vivo; settings: 500 g of ai./ha, rated after three weeks vs untreated control
Procedure: as §1, §2, §3, §4, §5, §6

Setaria [5] = experiment: Post-emergence test/greenhouse; format: in vivo; settings: 500 g of ai./ha, rated after three weeks vs untreated control
Procedure: as §1, §2, §3, §4, §5, §6

Galium = experiment: Pre-emergence test/greenhouse; format: in vivo; settings: 500 g of ai./ha, rated after three weeks vs untreated control
Procedure: as §1, §2, §3, §7, §5, §6

Abutilon = experiment: Pre-emergence test/greenhouse; format: in vivo; settings: 500 g of ai./ha, rated after three weeks vs untreated control
Procedure: as §1, §2, §3, §7, §5, §6

Amaranthus [6] = experiment: Pre-emergence test/greenhouse; format: in vivo; settings: 500 g of ai./ha, rated after three weeks vs untreated control
Procedure: as §1, §2, §3, §7, §5, §6

Alopecurus [7] = experiment: Pre-emergence test/greenhouse; format: in vivo; settings: 500 g of ai./ha, rated after three weeks vs untreated control
Procedure: as §1, §2, §3, §7, §5, §6

Setaria [8] = experiment: Pre-emergence test/greenhouse; format: in vivo; settings: 500 g of ai./ha, rated after three weeks vs untreated control
Procedure: as §1, §2, §3, §7, §5, §6

[9] = logP determination by reversed-phase HPLC (EEC Directive 79/831 Annex V.A8); format: physicochemical; settings: reversed-phase C18 HPLC column; a) acidic range: 0.1% aqueous phosphoric acid/acetonitrile gradient, C18, 43° C.
Procedure: The logP values given in Example 1 and in Table 1 were determined in accordance with EEC Directive 79/831 Annex V.A^8 by HPLC (High Performance Liquid Chromatography) using a reversed-phase column (C 18). Temperature: 43° C.
(a) Mobile phases for the determination in the acidic range: 0.1% aqueous phosphoric acid, acetonitrile; linear gradient from 10% acetonitrile to 90% acetonitrile—the corresponding data are labelled in Table 1 with ^a).
(b) Mobile phases for the determination in the neutral range: 0.01 molar aqueous phosphate buffer solution, acetonitrile; linear gradient from 10% acetonitrile to 90% acetonitrile—corresponding data are labelled in Table 1 with ^b).
Calibration was carried out using unbranched alkan-2-ones (with from 3 to 16 carbon atoms) whose logP values are known (determination of the logP values by the retention times using linear interpolation between two successive alkanones).

Row | chromatographic logP [9] | Compound | activity against weeds (weeds [1]) | activity against weeds (weeds [2]) | % damage Sinapis (Sinapis) | % damage Xanthium (Xanthium) | % damage Amaranthus (Amaranthus [3]) | % damage Alopecurus (Alopecurus [4]) | % damage Setaria (Setaria [5]) | % damage Galium (Galium) | % damage Abutilon (Abutilon) | % damage Amaranthus (Amaranthus [6]) | % damage Alopecurus (Alopecurus [7]) | % damage Setaria (Setaria [8])
1 | 4.26 | CC(F)c1nc(N)nc(NC2CCCc3sccc32)n1 (centres unmarked) [Example 1, 2-amino-4-(1-fluoro-ethyl)-6-(4,5,6,7-tetra-hydrobenzo[b]thiophen-4-yl-amino)-1,3,5-triazine] | strong activity | strong activity | 100% | 100% | 100% | 95% | 100% | 90% | 95% | 100% | 100% | 100%
2 | 1.12 | [H]/N=C(/N)N/C(=N/[H])NC1CCCc2sc(C)cc21 (centres unmarked) [Example II-1, 2-methyl-4,5,6,7-tetrahydrobenzo[b]thiophen-4-yl-biguanide hydrochloride] |  |  |  |  |  |  |  |  |  |  |  | 
